# How the values were obtained:
# [1] = test system: hPSC-derived neural tube (neural folding morphogenesis); assay: Modeling neural tube defects in the stem-cell derived neural tube morphogenesis system; format: cell-based, human; settings: for neural apical curvature / neural tissue morphology (thickness, hinges): treated samples vs control samples, ROCK inhibitor 10 μM day 5-8
# Experimental: Because animal models are limited in their capacity to explain how human genetics affects neural tube closure, it was tested whether the reproducible human stem-cell system could be used to model neural tube defects (NTDs). This example focuses on various compounds that induce NTDs: ROCK inhibitor, novobiocin, and valproic acid (FIG. 24). […] In turn, ROCK upregulates apical actomyosin contractility in neural cells which leads to apical constriction of the neural plate. Neural plate contraction then drives neural folding. It was thus set out to determine whether apical contractility plays a role during in vitro neural folding. […] The formation of an actomyosin gradient is followed by apical neural contraction which leads to folding.
# To perturb ROCK/Shroom3 signaling and apical neural contractility a highly specific molecular inhibitor of ROCK (Y-27632) was applied. […] The effects of novobiocin and valproic acid were also examined. […] It was further concluded that the in vitro lumen model system is suitable for studying how abnormalities in signaling pathways lead to neural tube defects in a human genetic context.
# Day 1. Seeding onto micropatterns. hPSCs are released from well-plate surfaces using non-enzymatic agitation following manufacturer's instructions (ReleSR, STEMCELL Technologies, Cambridge, MA). Cells are resuspended as a single-cell suspension at densities of 750K-1M cells/mL in mTeSR1 containing 10 μM ROCK inhibitor Y27632 (Abcam, Cambridge, UK). 200 μL of cell suspension is then pipetted onto prepatterned dishes and allowed to settle for 15 minutes before adding 1 mL of mTeSR1 and allowing cells to settle for 10 additional minutes. Excess media is aspirated, leaving enough liquid to cover patterns and replaced with fresh 2 mL of mTeSR until the following day.
# Day 2. Matrigel addition. mTESR1 media is exchanged with a neural induction media containing Matrigel (4%, v/v). Neural induction media is supplemented with 5 μM of TGFβ-inhibitor SB-431542.
# Day 3-4. Lumen Formation. Dishes are left unperturbed at day 3 to allow transition into 3D stem-cell tissue containing a single lumen.
# Day 5-9. Exposure to Morphogens. Neural induction media is supplemented with 5 ng/ml BMP4 in addition to 5 μM of SB-431542. Media is exchanged daily. Cell fates are observed on day 6 and folding is observed during days 7-9.
# All samples were fixed, immunostained and imaged as whole mounts in the culture dish. Samples are fixed in 4% PFA, 1 hr at room temperature (RT), washed three times for 15 min in PBS, and permeabilized in 1.5% Triton-PBS over-night (o/n) at 4 C. The following day, samples are washed in 0.3% Triton, and blocked for 2 hrs RT (10% NGS, 1% BSA, 0.3% Triton-X in PBS). Primary antibodies are used at 1:100-1:200 in blocking solution o/n at 4° C. Next, samples are washed in 0.1% Tween in PBS, and incubated with secondary antibodies 1:500-1:1000 in PBT o/n at 4° C. DAPI and phalloidin are also added at this stage. Finally, samples are washed in PBS for 1 hr, and imaged.
# ROCK inhibition is achieved using the small molecule Y-27632 reconstituted in water at a stock concentration of 10 mM. ROCK inhibitor was applied at a concentration of 10 μM (1:1000 dilution) at day 5, together with BMP, and maintained for 72 hrs until the end of the experiment at day 8. Media was changed daily. Control experiments were carried under identical conditions, adding water instead of ROCK inhibitor.
# 3D hPSC = assay: BMP4 exposure of micropatterned 3D hPSC without neural induction (immunostaining, qPCR); format: cell-based, human
# Description: FIG. 9 provides a schematic representing in vitro morphogenesis in three differentiation protocols in accordance with embodiments. (i) Exposure to BMP, without neural induction, results in an amnion-like tissue containing cells from three germ layers without formation of a neural fold. (ii) Neural tube morphogenesis is observed when neural induction is followed by exposure to BMP4. (iii) Homogenous expression of forebrain markers is observed under exposure to neural induction without BMP.
# FIG. 10 provides a schematic and results of the experimental timeline for three protocols detailed in FIG. 9. (B) Experimental timeline for the three protocols. Neural induction media includes N2 supplement and TGFβ inhibitor SB-431542 (SB). (C) Vertical sections of immunostained samples from the three differentiation protocols.
# FIG. 19 provides a schematic, images, and bar graph of cellular differentiation in the absences of neural induction in which no neural folding is observed, in accordance with embodiments. (A) Experimental timeline for BMP4 exposure without neural induction. (B) Bright field images showing development over 3 days. At day 4, cells migrate away from the micropatterned area. (C) Horizonal and (D) vertical sections of samples at day 3. Micropattern diameter is indicated in microns. Cells close to the glass express mesendoderm markers Brachyury (BRA) and SOX17. In 450 μm patterns, SOX2 is observed at the center of the tissue. Cells at the colony edges and at the top express amniotic ectoderm marker CDX2. A single lumen is maintained and no spontaneous folding is observed. (E) qPCR analysis for differentiation markers as a function of BMP concentration. BMP results in upregulation of the WNT and NODAL pathways, upregulation of mesendoderm markers EOMES/Brachyury/SOX17, amniotic ectoderm marker GATA3, downregulation of ectoderm marker SOX2 and pluripotency marker NANOG. Scale bar 50 μm unless indicated otherwise.
# The system was next applied to study which tissues contribute to neural folding. This question has been studied for over a century in animal models, and multiple hypothesis have been developed regarding the mechanical role of the neural tissue, neighboring surface ectoderm and underlying mesoderm. However, the limited accessibility in utero led to inconclusive and often contradictive results. The in vitro system allows to systemically control tissue composition through the choice of small molecules in the culture media (FIGS. 9 & 10). This system allows discernment of the tissues which are necessary and sufficient for neural tube morphogens. […] Mesoderm fates are suppressed by TGFβ inhibition, and only appear if the period of TGFβ inhibition is decreased (FIG. 17). […] It was next examined whether the non-neural ectoderm is required for folding. […]
# [2] = ROCK inhibition, Y-27632 10 μM day 5-8, vs control
# [3] = as a function of BMP concentration, no neural induction
Compound,"Shroom3 and F-actin localization to the apical neural surface [1, 2]","actin localization to the basal surface of epidermal/neural tissues and the epidermal apical surface [1, 2]","neural folding morphology ([1]; Y-27632 10 μM applied at day 5 together with BMP, maintained 72 hrs until day 8, vs control (water))",neural apical curvature [1],"neural tissue morphology (thickness, hinges) [1]",cell fates and folding morphogenesis (3D hPSC; addition of BMP4 without neural induction),qPCR: WNT and NODAL pathways (3D hPSC; [3]),qPCR: ectoderm marker SOX2 and pluripotency marker NANOG (3D hPSC; [3]),"qPCR: mesendoderm markers EOMES/Brachyury/SOX17, amniotic ectoderm marker GATA3 (3D hPSC; [3])"
C[C@@H](N)[C@H]1CC[C@H](C(=O)Nc2ccncc2)CC1 [Y-27632],disrupted,not significantly perturbed,severe folding defects similar to the open book morphology observed in embryonic cranial NTDs,significantly less curved than control samples,"thick and flat neural tissue, which lacks neural hinges",–,–,–,–
CO[C@@H]1[C@@H](OC(N)=O)[C@@H](O)[C@H](Oc2ccc3c(O)c(NC(=O)c4ccc(O)c(CC=C(C)C)c4)c(=O)oc3c2C)OC1(C)C [novobiocin],–,–,–,significantly less curved than control samples,"thick and flat neural tissue, which lacks neural hinges",–,–,–,–
CCCC(CCC)C(=O)O [valproic acid],–,–,–,significantly less curved than control samples,"thick and flat neural tissue, which lacks neural hinges",–,–,–,–
"BMP4: bone morphogenetic protein 4, morphogen",–,–,–,–,–,"mesoderm and ectoderm cell fates, but lack neural tissue and does not exhibit folding",upregulation,downregulation,upregulation
